Assay results reported in article PMC10301603, “Potent and Selective Benzothiazole-Based Antimitotics with Improved Water Solubility: Design, Synthesis, and Evaluation as Novel Anticancer Agents” (Pharmaceutics, 2023).

Key:
U87MG cells [1] = assay: Cell cycle analysis (PI, flow cytometry); format: cell-based, human; settings: for combined G2/M plus subG0/G1 populations: over the three time points (24, 48, 72 h)
Method: An amount of 8 × 10^4 cells/mL (HeLa, MCF7, or U87 MG cells) were seeded in 6-well plates (2 mL/well) and incubated in complete DMEM medium (see above) at 37 °C and 5% CO2 atmosphere for 24 h. Then, the medium was replaced with fresh complete DMEM in the presence or absence of the selected compounds (8, 9, and 14). The concentration of the compounds was selected according to their IC50 value for the antiproliferative activity in each cell line (see above, Section 2.4.4). […] Untreated cells were used as negative controls. Cells were harvested 24, 48, or 72 h following treatment and fixed in ice-cold ethanol/PBS (7:3) overnight. Cells were then washed twice with PBS, suspended in PBS, and incubated overnight in darkness with 0.2 mg/mL RNase A (Sigma-Aldrich, St. Louis, MO, USA), 50 µg/mL propidium iodide (Sigma-Aldrich, St. Louis, MO, USA), and Triton 10× at room temperature. BD Accuri™ C6 Plus Flow Cytometer (BD Biosciences) was used to analyze samples, and BD Accuri™ C6 Software (version 1.0.264.21) was used for data analysis.

U87MG cells [2] = assay: Lactate dehydrogenase (LDH) release assay; format: cell-based, human; settings: 72 h
Method: CytoTox96® Non-Radioactive Cytotoxicity Assay kit (Promega, Madison, WI, USA) was used to measure the release of lactate dehydrogenase (LDH) by following the previously described method in [46]. Briefly, U87 MG or HEK-293 cells were incubated for 72 h with compounds 8, 9, or 14 at concentrations ranging from 10^−9 to 10^−6 M for U87 MG cells, and from 10^−4 to 10^−3 M for HEK-293 cells. After treatment, the supernatants were collected, and the intact attached cells were lysed using 0.1% (w/v) Triton X-100 in (0.9%) NaCl solution. Both the LDH released to culture media, as well as the LDH content within the cells, were determined spectrophotometrically at 490 nm on a 96-well plate reader (Infinite 200, Tecan, Salzburg, Austria) by following the manufacturer’s instructions. LDH release was defined by the ratio of LDH released/total LDH present in the cells, with the total LDH being 100%. All the samples were run in quadruplicate.

HeLa cells = assay: Immunofluorescence of cellular microtubules (confocal microscopy); format: cell-based, human; settings: 24 h, 8 and 14 200 nM, 9 500 nM
Method: (§1) The 8 × 10^4 HeLa, MCF7, and U87 MG cells were seeded on 0.01% poly-L-lysine pre-coated square glass coverslips ([…]) deposited on 6-well plates (1 coverslip/well) and incubated in complete DMEM medium (see above) at 37 °C and 5% CO2 atmosphere for 24 h. Then, the culture medium was replaced by fresh complete DMEM, and cells were incubated in the presence or absence of selected compounds for 24 h. Untreated cells were used as negative controls. […] In that way, compounds with similar antiproliferative potencies were tested at the same concentrations. HeLa cells were treated with 200 nM of compounds 8 and 14 and 500 nM of compound 9; MCF7 cells were treated with 100 nM of compounds 8 and 14 and 500 nM of compound 9; and U87 MG cells were treated with 50 nM of compound 8 and 100 nM of compounds 9 and 14. After incubation, medium was removed and coverslips were washed three times with PBS, fixed in 4% formaldehyde in PBS for 10 min, permeabilized with 0.5% Triton X-100 (Sigma-Aldrich, St. Louis, MO, USA) in PBS for 90 s at 4 °C, and blocked with 10% BSA in PBS for 30 min. After four washes with PBS, the coverslips were incubated for 1 h with anti-α-tubulin mouse monoclonal antibody (Sigma-Aldrich, St. Louis, MO, USA), and diluted 1:200 in PBS containing 3% BSA. After four washes wish PBS, coverslips were incubated, in darkness, with fluorescent secondary antibody Alexa Fluor 488 goat anti-mouse IgG (Molecular Probes, Invitrogen, Eugenen, OR, USA), and diluted 1:400 in PBS containing 1% BSA for 1.5 h. After four washes with PBS, a drop of ProLong™ Gold Antifade Mountant containing DAPI (ThermoFisher, Waltham, MA, USA) was added for cell nuclei staining. Samples were analyzed via confocal microscopy using a LEICA SP5 microscope DMI-6000V model coupled to a LEICA LAS AF software computer.

MCF7 cells = assay: as above; format: cell-based, human; settings: MCF7, 24 h; 8 and 14 100 nM, 9 500 nM
Method: as §1

U87MG cells [3] = assay: as above; format: cell-based, human; settings: 24 h, 8 50 nM, 9 and 14 100 nM
Method: as §1

tumor cell lines = assay: Cell growth inhibition assay (MTT), summary statements over several cell lines; format: cell-based; settings: glioblastoma cell lines; read-out: antiproliferative IC50
Method: Cells were plated in 96-well plates (100 µL/well) at the following concentrations: 30,000 cells/mL (HepG2, U87 MG, T98G, C6, LNCaP, PC3, and HT-29 cells) or 15,000 cells/mL (HeLa and MCF-7 cells). Previous experiments were performed to choose the optimal cell concentration (70–80% confluence) and avoid the formation of cell aggregates. Cells were incubated in complete DMEM or RPMI 1640 medium (see above) at 37 °C and 5% CO2 atmosphere for 24 h to allow for cell attachment to the plate. Then, every compound was added (10 µL/well) to a final concentration of 10 µM. Non-treated cells were used as negative controls. The antiproliferative activity of compounds was measured 72 h after the treatments using the MTT reagent (3-[4,5-dimethylthiazol-2-yl]-2,5-diphenyltetrazolium bromide), (MTT Thiazolyl Blue Tetrazolium Bromide, Sigma-Aldrich, St. Louis, MO, USA) dissolved in PBS at 5 mg/mL. Compounds showing antiproliferative effects at 10 µM were selected to determine their IC50 value. For that purpose, compounds were used at different concentrations ranging from 10^−10 to 10^−2 M. Measurements were performed in triplicate, and each experiment was repeated three times. The IC50 value was determined for every compound using Origin software (OriginLab, Washington, USA). To study the sensitivity to MDR efflux pumps of compounds, the IC50 values were determined by following the same procedure but in the presence of verapamil (final concentration of 10 µM).

[4] = 24 h, 8 50 nM, 14 and 9 200 nM (Figure 6 legend; 100 nM in methods)

SMILES	G2/M population (U87MG cells [1]; [4]) [%]	SubG0/G1 population (U87MG cells [1]; [4]) [%]	combined G2/M plus subG0/G1 populations (U87MG cells [1])	LDH release (U87MG cells [2]; 1 nM)	LDH release (U87MG cells [2]; 10 nM)	LDH release (U87MG cells [2]; 100 nM) [%]	effect on the microtubule network (HeLa cells)	effect on the microtubule network (MCF7 cells)	effect on the microtubule network (U87MG cells [3])	cell death (LDH release) (U87MG cells [2]; above 100 nM) [%]	IC50 (tumor cell lines) [nM]
CCNC(=O)N(Cc1cccnc1)c1nc2ccc(OC)cc2s1 [Compound 8]	39	41	~85%	~40%	over 60%	100	disruption of the microtubule network	disruption of the microtubule network	disruption of the microtubule network	–	–
COc1ccc2nc(N(C=O)Cc3cccnc3)sc2c1 [Compound 14, N-(6-methoxybenzo[d]thiazol-2-yl)-N-(pyridin-3-ylmethyl)formamide]	–	–	roughly 75%	around 10%	~20%	–	disruption of the microtubule network	disruption of the microtubule network	disruption of the microtubule network	100	37 to 75
